Measured values reported in the kinase profiling compilation of Christmann-Franck et al. (2016).

How the values were obtained:
Test in all cases: KINOMEscan competition binding
Details in all cases: compound 10.0 µM
[1] = target: ACVR2B (human) (UniProt Q13705)
[2] = target: AKT2 (human) (UniProt P31751)
[3] = target: AKT3 (human) (UniProt Q9Y243)
[4] = target: BTK (human) (UniProt Q06187)
[5] = target: CAMKK2 (human) (UniProt Q96RR4)
[6] = target: CDK14 (human) (UniProt O94921)
[7] = target: CDKL3 (human) (UniProt Q8IVW4)
[8] = target: CSK (human) (UniProt P41240)
[9] = target: CSNK1D (human) (UniProt P48730)
[10] = target: DMPK (human) (UniProt Q09013)
[11] = target: EIF2AK2 (human) (UniProt P19525)
[12] = target: ERBB3 (human) (UniProt P21860)
[13] = target: FLT3 (human) (UniProt P36888)
Sequence of FLT3 (human) (P36888 whole entry, looked up): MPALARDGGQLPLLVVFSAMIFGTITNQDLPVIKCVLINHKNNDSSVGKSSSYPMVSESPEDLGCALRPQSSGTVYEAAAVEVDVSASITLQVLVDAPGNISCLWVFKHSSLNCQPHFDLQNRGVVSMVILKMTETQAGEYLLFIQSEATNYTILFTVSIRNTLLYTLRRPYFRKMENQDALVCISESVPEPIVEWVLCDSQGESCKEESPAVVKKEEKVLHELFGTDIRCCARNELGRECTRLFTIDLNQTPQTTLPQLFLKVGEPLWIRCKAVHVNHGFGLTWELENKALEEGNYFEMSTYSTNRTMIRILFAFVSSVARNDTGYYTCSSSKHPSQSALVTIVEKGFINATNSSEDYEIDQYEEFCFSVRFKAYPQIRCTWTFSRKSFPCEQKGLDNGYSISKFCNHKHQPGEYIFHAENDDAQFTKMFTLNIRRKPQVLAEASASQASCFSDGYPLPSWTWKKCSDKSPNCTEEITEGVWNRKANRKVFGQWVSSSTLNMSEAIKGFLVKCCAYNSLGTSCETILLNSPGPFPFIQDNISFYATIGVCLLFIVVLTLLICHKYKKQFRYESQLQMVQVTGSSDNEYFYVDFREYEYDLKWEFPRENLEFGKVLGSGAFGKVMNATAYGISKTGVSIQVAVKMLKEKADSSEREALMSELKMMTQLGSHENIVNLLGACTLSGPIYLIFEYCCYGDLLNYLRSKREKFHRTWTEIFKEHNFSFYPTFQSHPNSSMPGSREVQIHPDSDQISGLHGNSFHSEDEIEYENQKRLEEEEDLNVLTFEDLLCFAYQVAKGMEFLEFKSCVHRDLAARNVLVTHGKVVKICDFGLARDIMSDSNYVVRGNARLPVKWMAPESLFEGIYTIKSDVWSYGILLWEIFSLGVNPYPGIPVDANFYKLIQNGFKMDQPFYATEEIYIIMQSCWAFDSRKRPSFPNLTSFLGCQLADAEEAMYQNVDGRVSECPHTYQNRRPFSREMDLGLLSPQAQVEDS

[14] = target: HIPK3 (human) (UniProt Q9H422)
Sequence of HIPK3 (human) (Q9H422 whole entry, looked up): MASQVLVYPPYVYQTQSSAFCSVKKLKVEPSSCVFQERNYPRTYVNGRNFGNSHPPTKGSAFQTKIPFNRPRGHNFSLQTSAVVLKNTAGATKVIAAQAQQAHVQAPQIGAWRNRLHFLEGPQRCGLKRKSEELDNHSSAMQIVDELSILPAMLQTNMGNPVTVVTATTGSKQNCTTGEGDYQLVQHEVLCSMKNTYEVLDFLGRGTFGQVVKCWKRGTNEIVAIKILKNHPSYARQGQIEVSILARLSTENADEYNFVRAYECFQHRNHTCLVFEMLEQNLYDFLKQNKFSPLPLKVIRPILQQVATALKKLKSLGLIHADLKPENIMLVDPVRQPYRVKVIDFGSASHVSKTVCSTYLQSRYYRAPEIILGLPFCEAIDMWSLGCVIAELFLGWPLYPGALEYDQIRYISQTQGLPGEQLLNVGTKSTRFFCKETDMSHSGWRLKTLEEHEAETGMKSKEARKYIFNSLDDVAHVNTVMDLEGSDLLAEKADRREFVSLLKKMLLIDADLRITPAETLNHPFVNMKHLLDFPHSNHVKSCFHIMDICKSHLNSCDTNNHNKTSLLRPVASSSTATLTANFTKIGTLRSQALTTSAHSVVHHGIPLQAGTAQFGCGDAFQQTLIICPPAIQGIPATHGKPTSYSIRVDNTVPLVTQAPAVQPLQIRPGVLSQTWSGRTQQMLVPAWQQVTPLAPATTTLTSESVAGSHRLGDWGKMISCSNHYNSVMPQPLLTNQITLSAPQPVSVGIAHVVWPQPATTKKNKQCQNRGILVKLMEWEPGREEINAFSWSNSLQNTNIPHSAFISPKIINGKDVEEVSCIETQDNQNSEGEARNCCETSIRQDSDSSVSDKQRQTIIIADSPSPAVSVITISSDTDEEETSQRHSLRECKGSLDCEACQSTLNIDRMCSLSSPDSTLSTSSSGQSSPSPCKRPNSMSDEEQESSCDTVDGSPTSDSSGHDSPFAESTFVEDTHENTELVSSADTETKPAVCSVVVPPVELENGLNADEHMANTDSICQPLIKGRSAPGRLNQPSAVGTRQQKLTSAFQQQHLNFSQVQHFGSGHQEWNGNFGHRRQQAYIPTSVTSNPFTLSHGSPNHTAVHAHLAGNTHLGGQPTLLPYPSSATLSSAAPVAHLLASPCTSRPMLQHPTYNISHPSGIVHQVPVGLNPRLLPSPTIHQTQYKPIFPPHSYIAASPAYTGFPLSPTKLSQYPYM

[15] = target: IGF1R (human) (UniProt P08069)
[16] = target: IRAK3 (human) (UniProt Q9Y616)
[17] = target: ITK (human) (UniProt Q08881)
[18] = test system: KIT (human), P10721 [L576P]
[19] = target: MAPK10 (human) (UniProt P53779)
[20] = target: MATK (human) (UniProt P42679)
[21] = target: MYLK (human) (UniProt Q15746)
[22] = target: NTRK2 (human) (UniProt Q16620)
[23] = target: PDGFRA (human) (UniProt P16234)
[24] = target: PI4KB (human) (UniProt Q9UBF8)
[25] = target: PIM2 (human) (UniProt Q9P1W9)
Sequence of PIM2 (human) (Q9P1W9 whole entry, looked up): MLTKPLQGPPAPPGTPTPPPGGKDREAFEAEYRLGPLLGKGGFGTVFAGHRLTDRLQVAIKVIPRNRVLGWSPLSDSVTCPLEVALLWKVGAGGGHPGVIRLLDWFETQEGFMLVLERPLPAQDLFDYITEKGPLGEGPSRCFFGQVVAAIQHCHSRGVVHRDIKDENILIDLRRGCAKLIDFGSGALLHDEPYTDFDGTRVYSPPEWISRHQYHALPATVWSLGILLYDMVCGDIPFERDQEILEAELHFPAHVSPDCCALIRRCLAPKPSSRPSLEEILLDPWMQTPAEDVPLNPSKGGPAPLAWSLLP

[26] = target: PIP5K1C (human) (UniProt O60331)
[27] = target: PRKAA1 (human) (UniProt Q13131)
[28] = target: PRKCH (human) (UniProt P24723)
Sequence of PRKCH (human) (P24723 whole entry, looked up): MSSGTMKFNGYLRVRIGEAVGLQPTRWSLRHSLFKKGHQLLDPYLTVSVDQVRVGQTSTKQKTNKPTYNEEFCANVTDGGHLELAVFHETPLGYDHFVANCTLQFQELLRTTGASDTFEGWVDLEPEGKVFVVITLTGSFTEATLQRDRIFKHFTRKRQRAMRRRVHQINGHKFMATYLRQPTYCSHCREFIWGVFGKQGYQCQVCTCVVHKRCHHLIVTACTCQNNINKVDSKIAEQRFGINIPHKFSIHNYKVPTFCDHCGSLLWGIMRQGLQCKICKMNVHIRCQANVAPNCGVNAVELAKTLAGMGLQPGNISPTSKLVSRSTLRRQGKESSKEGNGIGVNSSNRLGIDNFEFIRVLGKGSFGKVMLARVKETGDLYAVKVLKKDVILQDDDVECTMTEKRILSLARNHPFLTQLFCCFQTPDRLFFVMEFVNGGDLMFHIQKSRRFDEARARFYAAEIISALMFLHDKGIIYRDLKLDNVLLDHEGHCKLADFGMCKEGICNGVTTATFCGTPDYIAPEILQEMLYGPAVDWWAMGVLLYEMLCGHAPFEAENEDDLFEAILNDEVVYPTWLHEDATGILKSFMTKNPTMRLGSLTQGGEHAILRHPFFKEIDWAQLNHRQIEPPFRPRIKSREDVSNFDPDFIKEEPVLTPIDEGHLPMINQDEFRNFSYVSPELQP

[29] = target: PRPF4B (human) (UniProt Q13523)
[30] = target: RPS6KA1 KD2 (human) (UniProt Q15418)
[31] = target: RPS6KA3 KD1 (human) (UniProt P51812)
[32] = target: SGK3 (human) (UniProt Q96BR1)
[33] = target: TBK1 (human) (UniProt Q9UHD2)
[34] = target: TESK1 (human) (UniProt Q15569)
[35] = target: TGFBR2 (human) (UniProt P37173)
[36] = target: TXK (human) (UniProt P42681)
Sequence of TXK (human) (P42681 whole entry, looked up): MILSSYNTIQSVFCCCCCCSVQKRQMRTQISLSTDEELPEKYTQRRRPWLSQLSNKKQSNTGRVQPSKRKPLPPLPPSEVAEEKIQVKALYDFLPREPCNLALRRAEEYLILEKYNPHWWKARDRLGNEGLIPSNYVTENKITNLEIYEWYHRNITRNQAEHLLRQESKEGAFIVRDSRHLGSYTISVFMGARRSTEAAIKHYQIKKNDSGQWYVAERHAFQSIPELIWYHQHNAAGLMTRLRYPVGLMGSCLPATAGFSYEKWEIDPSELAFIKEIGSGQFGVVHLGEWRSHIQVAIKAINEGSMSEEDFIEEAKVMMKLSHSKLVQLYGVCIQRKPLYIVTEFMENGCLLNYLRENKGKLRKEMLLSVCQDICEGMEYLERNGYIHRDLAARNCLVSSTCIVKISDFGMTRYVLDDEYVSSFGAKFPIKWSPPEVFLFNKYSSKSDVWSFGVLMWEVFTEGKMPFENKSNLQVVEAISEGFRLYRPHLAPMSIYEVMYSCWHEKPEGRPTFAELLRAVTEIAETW

[37] = target: TYK2 JH2 pseudokinase (human) (UniProt P29597)
[38] = target: ULK2 (human) (UniProt Q8IYT8)
[39] = target: WEE1 (human) (UniProt P30291)
[40] = target: ZAP70 (human) (UniProt P43403)
Sequence of ZAP70 (human) (P43403 whole entry, looked up): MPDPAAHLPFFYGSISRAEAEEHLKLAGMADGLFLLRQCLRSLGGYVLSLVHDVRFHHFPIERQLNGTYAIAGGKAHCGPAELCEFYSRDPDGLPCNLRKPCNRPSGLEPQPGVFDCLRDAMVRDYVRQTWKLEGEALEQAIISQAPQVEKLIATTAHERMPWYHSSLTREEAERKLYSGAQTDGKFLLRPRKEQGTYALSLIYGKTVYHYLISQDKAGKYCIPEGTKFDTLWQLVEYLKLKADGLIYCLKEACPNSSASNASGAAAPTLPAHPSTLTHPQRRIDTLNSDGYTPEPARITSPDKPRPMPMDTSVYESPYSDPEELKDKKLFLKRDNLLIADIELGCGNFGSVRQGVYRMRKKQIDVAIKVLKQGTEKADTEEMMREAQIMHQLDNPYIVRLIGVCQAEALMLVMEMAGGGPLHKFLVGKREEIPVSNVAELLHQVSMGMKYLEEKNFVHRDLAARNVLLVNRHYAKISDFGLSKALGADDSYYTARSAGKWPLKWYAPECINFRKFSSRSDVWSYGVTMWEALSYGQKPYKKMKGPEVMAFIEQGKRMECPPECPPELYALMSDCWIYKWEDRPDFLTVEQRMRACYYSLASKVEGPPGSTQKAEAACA

Sequence of AKT2 (human) (P31751 whole entry, looked up): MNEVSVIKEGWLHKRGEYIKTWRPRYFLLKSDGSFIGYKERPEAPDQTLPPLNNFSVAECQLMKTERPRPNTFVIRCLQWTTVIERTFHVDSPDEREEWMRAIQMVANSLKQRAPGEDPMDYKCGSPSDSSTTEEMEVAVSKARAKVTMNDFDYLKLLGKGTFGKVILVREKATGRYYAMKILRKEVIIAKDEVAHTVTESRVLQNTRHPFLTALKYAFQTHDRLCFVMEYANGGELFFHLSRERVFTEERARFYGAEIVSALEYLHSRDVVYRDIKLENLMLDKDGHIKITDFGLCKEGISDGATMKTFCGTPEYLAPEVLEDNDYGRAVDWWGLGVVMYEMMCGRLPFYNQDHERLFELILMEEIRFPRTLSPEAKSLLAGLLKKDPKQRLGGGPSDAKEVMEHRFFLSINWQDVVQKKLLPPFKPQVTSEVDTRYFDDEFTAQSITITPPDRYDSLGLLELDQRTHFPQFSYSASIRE

Compound	kinase still bound, per cent of control [1]	kinase still bound, per cent of control [2]	kinase still bound, per cent of control [3]	kinase still bound, per cent of control [4]	kinase still bound, per cent of control [5]	kinase still bound, per cent of control [6]	kinase still bound, per cent of control [7]	kinase still bound, per cent of control [8]	kinase still bound, per cent of control [9]	kinase still bound, per cent of control [10]	kinase still bound, per cent of control [11]	kinase still bound, per cent of control [12]	kinase still bound, per cent of control [13]	kinase still bound, per cent of control [14]	kinase still bound, per cent of control [15]	kinase still bound, per cent of control [16]	kinase still bound, per cent of control [17]	kinase still bound, per cent of control [18]	kinase still bound, per cent of control [19]	kinase still bound, per cent of control [20]	further results
O=c1cc(N2CCOCC2)oc2c(-c3cccc4c3sc3ccccc34)cccc12	98%	51%	98%	100%	88%	100%	100%	100%	89%	89%	72%	72%	100%	92%	97%	41%	100%	66%	100%	99%	kinase still bound, per cent of control [21]: 91%; kinase still bound, per cent of control [22]: 100%; kinase still bound, per cent of control [23]: 100%; kinase still bound, per cent of control [24]: 100%; kinase still bound, per cent of control [25]: 84%; kinase still bound, per cent of control [26]: 61%; kinase still bound, per cent of control [27]: 100%; kinase still bound, per cent of control [28]: 100%; kinase still bound, per cent of control [29]: 78%; kinase still bound, per cent of control [30]: 75%; kinase still bound, per cent of control [31]: 84%; kinase still bound, per cent of control [32]: 100%; kinase still bound, per cent of control [33]: 84%; kinase still bound, per cent of control [34]: 72%; kinase still bound, per cent of control [35]: 89%; kinase still bound, per cent of control [36]: 91%; kinase still bound, per cent of control [37]: 100%; kinase still bound, per cent of control [38]: 98%; kinase still bound, per cent of control [39]: 100%; kinase still bound, per cent of control [40]: 100%
CN(C)C/C=C/C(=O)Nc1ccc(C(=O)Nc2cccc(Nc3nccc(-c4cccnc4)n3)c2)cc1	98%	100%	100%	71%	16%	98%	20%	97%	20%	64%	50%	57%	36%	4.2%	100%	6.8%	100%	0.35%	1.3%	91%	kinase still bound, per cent of control [21]: 64%; kinase still bound, per cent of control [22]: 69%; kinase still bound, per cent of control [23]: 4%; kinase still bound, per cent of control [24]: 51%; kinase still bound, per cent of control [25]: 100%; kinase still bound, per cent of control [26]: 20%; kinase still bound, per cent of control [27]: 100%; kinase still bound, per cent of control [28]: 100%; kinase still bound, per cent of control [29]: 100%; kinase still bound, per cent of control [30]: 91%; kinase still bound, per cent of control [31]: 62%; kinase still bound, per cent of control [32]: 65%; kinase still bound, per cent of control [33]: 38%; kinase still bound, per cent of control [34]: 74%; kinase still bound, per cent of control [35]: 50%; kinase still bound, per cent of control [36]: 67%; kinase still bound, per cent of control [37]: 0.2%; kinase still bound, per cent of control [38]: 99%; kinase still bound, per cent of control [39]: 100%; kinase still bound, per cent of control [40]: 85%
C=CC(=O)Nc1cc(-n2c(=O)ccc3cnc4ccc(-c5cn[nH]c5)cc4c32)ccc1C	21%	87%	100%	0.2%	49%	60%	33%	100%	47%	59%	94%	94%	6.2%	48%	100%	0.7%	29%	68%	1.8%	100%	kinase still bound, per cent of control [21]: 70%; kinase still bound, per cent of control [22]: 51%; kinase still bound, per cent of control [23]: 21%; kinase still bound, per cent of control [24]: 2.3%; kinase still bound, per cent of control [25]: 69%; kinase still bound, per cent of control [26]: 42%; kinase still bound, per cent of control [27]: 96%; kinase still bound, per cent of control [28]: 100%; kinase still bound, per cent of control [29]: 84%; kinase still bound, per cent of control [30]: 94%; kinase still bound, per cent of control [31]: 69%; kinase still bound, per cent of control [32]: 96%; kinase still bound, per cent of control [33]: 100%; kinase still bound, per cent of control [34]: 54%; kinase still bound, per cent of control [35]: 82%; kinase still bound, per cent of control [36]: 7%; kinase still bound, per cent of control [37]: 36%; kinase still bound, per cent of control [38]: 81%; kinase still bound, per cent of control [39]: 100%; kinase still bound, per cent of control [40]: 48%
